Measured values as given in patent US12290601B2, “Pharmaceutical composition comprising axitinib” (Synthon B.V., priority 2019, dated 2025).
Where two headings read alike, the source gives them in different places.

Experiments:
[1] = cited from earlier work
Aqueous solubility = type: physicochemical; details: versus form XLI
[2] = Photo-stability of crystalline forms; type: physicochemical; details: versus form XLI
[3] = among polymorphic forms; cited from earlier work

## CNC(=O)c1ccccc1Sc1ccc2c(/C=C/c3ccccn3)n[nH]c2c1 [Axitinib, N-methyl-2-({3-[(E)-2-pyridin-2-ylethenyl]-1H-indazol-6-yl}sulfanyl)benzamide]
[1]
  solubility: low solubility
[1]; gastric, pH 1.7
  solubility: highly soluble

## CNC(=O)c1ccccc1Sc1ccc2c(/C=C/c3ccccn3)n[nH]c2c1 [axitinib form IV, N-methyl-2-({3-[(E)-2-pyridin-2-ylethenyl]-1H-indazol-6-yl}sulfanyl)benzamide]
Aqueous solubility
  aqueous solubility, fold higher compared to crystalline axitinib form XLI: 2-3 fold
[2]
  photo-stability compared to crystalline axitinib form XLI: less photo-stable

## CNC(=O)c1ccccc1Sc1ccc2c(/C=C/c3ccccn3)n[nH]c2c1 [Form XLI, N-methyl-2-({3-[(E)-2-pyridin-2-ylethenyl]-1H-indazol-6-yl}sulfanyl)benzamide]
[3]
  thermodynamic stability: most thermodynamically stable
